{
  "source": "patent US6852673B2",
  "about": "“Herbicidal pyridine compounds” (BASF Aktiengesellschaft, priority 1998, dated 2005)",
  "format_in_all_cases": "in vivo",
  "key": {"[1]": {"test_system": "Echinochloa grus galli (ECHCG)", "test": "Pre-emergence herbicidal evaluation, barnyard grass", "source_text": "(§1) The pre-emergence herbicidal activity of the compounds of the present invention is exemplified by the following test in which the seeds of a variety of monocotyledonous and dicotyledonous plants are seperately mixed with potting soil and planted on top of approximately one inch of soil in separate pots. After planting, the pots are sprayed with the selected aqueous acetone solution containing test compound in sufficient quantity to provide the equivalent of about 0.0125 to 0.4 kg per hectare of test compound per pot. The treated pots are then placed on greenhouse benches, watered and cared for in accordance with conventional greenhouse procedures. From 2 to 4 weeks after treatment, the tests are terminated and each pot is examined and rated according to the rating system set forth below."}, "Oryza sativum (ORYSA)": {"test_system": "Oryza sativum (ORYSA)", "test": "Pre-emergence herbicidal evaluation, rice", "source_text": "as §1"}, "Zea mays (ZEAMX) [2]": {"test_system": "Zea mays (ZEAMX)", "test": "Pre-emergence herbicidal evaluation, maize", "source_text": "as §1"}, "Glycine max (GLXMA)": {"test_system": "Glycine max (GLXMA)", "test": "Pre-emergence herbicidal evaluation, soyabeans", "source_text": "as §1"}, "[3]": {"test_system": "Alopecurus myosuroides (ALOMY)", "test": "Pre-emergence herbicidal evaluation, black grass", "source_text": "as §1"}, "[4]": {"test_system": "Triticum aestivum (TRZAW)", "test": "Post-emergence herbicidal evaluation, winter wheat", "settings": "rated 2 to 4 weeks after treatment", "protocol": "(§2) [table] [table] […] These acetone solutions are diluted with water and the resulting formulations applied at dosage levels equivalent of about 0.03 to 0.4 kg per hectare of test compound per pot. After spraying the plants are placed on greenhouse benches and are cared for in the usual manner, commensurate with conventional greenhouse practices. From 2 to 4 weeks after treatment, the seedling plants are examined and rated according to the rating system provided above. A rating 0 indicates growth as untreated control, a rating 9 indicates death."}, "[5]": {"test_system": "Ambrosia artemiisifolia (AMBEL)", "test": "Pre-emergence herbicidal evaluation, ragweed", "source_text": "as §1"}, "[6]": {"test_system": "Echinochloa grus galli (ECHCG)", "test": "Post-emergence herbicidal evaluation, barnyard grass", "settings": "rated 2 to 4 weeks after treatment", "protocol": "as §2"}, "[7]": {"test_system": "Ipomoea hederacea (IPOHE)", "test": "Post-emergence herbicidal evaluation, morning glory", "settings": "rated 2 to 4 weeks after treatment", "protocol": "as §2"}, "Solanum nigrum (SOLNI)": {"test_system": "Solanum nigrum (SOLNI)", "test": "Pre-emergence herbicidal evaluation, black nightshade", "source_text": "as §1"}, "[8]": {"test_system": "Ipomoea hederacea (IPOHE)", "test": "Pre-emergence herbicidal evaluation, morning glory", "source_text": "as §1"}, "Zea mays (ZEAMX) [9]": {"test_system": "Zea mays (ZEAMX)", "test": "Post-emergence herbicidal evaluation, maize", "settings": "rated 2 to 4 weeks after treatment", "protocol": "as §2"}, "[10]": {"test_system": "Digitaria sanguinalis (DIGSA)", "test": "Pre-emergence herbicidal evaluation, large crabgrass", "source_text": "as §1"}, "Hordeum vulgare (HORVW) [11]": {"test_system": "Hordeum vulgare (HORVW)", "test": "Post-emergence herbicidal evaluation, winter barley", "settings": "rated 2 to 4 weeks after treatment", "protocol": "as §2"}, "[12]": {"test_system": "Ambrosia artemiisifolia (AMBEL)", "test": "Post-emergence herbicidal evaluation, ragweed", "settings": "rated 2 to 4 weeks after treatment", "protocol": "as §2"}, "Hordeum vulgare (HORVW) [13]": {"test_system": "Hordeum vulgare (HORVW)", "test": "Pre-emergence herbicidal evaluation, winter barley", "source_text": "as §1"}},
  "data": [
    {"smiles": "Cc1cc(OCC(F)(F)C(F)(F)F)nc(Oc2cc(C(F)(F)F)nn2C)c1", "note": "[Example 7]", "values": [
      {"measurement": "ECHCG rating", "setting": "[1]; dose 0.013 kg/ha", "value": "0 (0 - No effect)"},
      {"measurement": "ECHCG rating", "setting": "[1]; dose 0.025 kg/ha", "value": "1 (1 - Trace effect)"},
      {"measurement": "ECHCG rating", "setting": "[1]; dose 0.1 kg/ha", "value": "4 (4 - Injury)"},
      {"measurement": "ECHCG rating", "setting": "[1]; dose 0.4 kg/ha", "value": "7 (7 - Good herbicidal effect)"},
      {"measurement": "ORYSA rating", "setting": "Oryza sativum (ORYSA); dose 0.013 kg/ha", "value": "0 (0 - No effect)"},
      {"measurement": "ORYSA rating", "setting": "Oryza sativum (ORYSA); dose 0.025 kg/ha", "value": "1 (1 - Trace effect)"},
      {"measurement": "ORYSA rating", "setting": "Oryza sativum (ORYSA); dose 0.1 kg/ha", "value": "1 (1 - Trace effect)"},
      {"measurement": "ORYSA rating", "setting": "Oryza sativum (ORYSA); dose 0.4 kg/ha", "value": "2 (2 - Slight effect)"},
      {"measurement": "selectivity in maize", "setting": "Zea mays (ZEAMX) [2]", "value": "good selectivity"},
      {"measurement": "ZEAMX rating", "setting": "Zea mays (ZEAMX) [2]; dose 0.013 kg/ha", "value": "0 (0 - No effect)"},
      {"measurement": "ZEAMX rating", "setting": "Zea mays (ZEAMX) [2]; dose 0.025 kg/ha", "value": "0 (0 - No effect)"},
      {"measurement": "ZEAMX rating", "setting": "Zea mays (ZEAMX) [2]; dose 0.1 kg/ha", "value": "0 (0 - No effect)"},
      {"measurement": "ZEAMX rating", "setting": "Zea mays (ZEAMX) [2]; dose 0.4 kg/ha", "value": "2 (2 - Slight effect)"},
      {"measurement": "selectivity in soybeans", "setting": "Glycine max (GLXMA)", "value": "quite selective"},
      {"measurement": "GLXMA rating", "setting": "Glycine max (GLXMA); dose 0.013 kg/ha", "value": "0 (0 - No effect)"},
      {"measurement": "GLXMA rating", "setting": "Glycine max (GLXMA); dose 0.025 kg/ha", "value": "0 (0 - No effect)"},
      {"measurement": "GLXMA rating", "setting": "Glycine max (GLXMA); dose 0.1 kg/ha", "value": "2 (2 - Slight effect)"},
      {"measurement": "GLXMA rating", "setting": "Glycine max (GLXMA); dose 0.4 kg/ha", "value": "3 (3 - Moderate effect)"},
      {"measurement": "ALOMY rating", "setting": "[3]; dose 0.013 kg/ha", "value": "0 (0 - No effect)"},
      {"measurement": "ALOMY rating", "setting": "[3]; dose 0.025 kg/ha", "value": "1 (1 - Trace effect)"},
      {"measurement": "ALOMY rating", "setting": "[3]; dose 0.1 kg/ha", "value": "4 (4 - Injury)"},
      {"measurement": "ALOMY rating", "setting": "[3]; dose 0.4 kg/ha", "value": "9 (9 - Complete kill)"},
      {"measurement": "TRZAW rating", "setting": "[4]; dose 0.03 kg/ha", "value": "2 (2 - Slight effect)"},
      {"measurement": "TRZAW rating", "setting": "[4]; dose 0.1 kg/ha", "value": "2 (2 - Slight effect)"},
      {"measurement": "TRZAW rating", "setting": "[4]; dose 0.4 kg/ha", "value": "3 (3 - Moderate effect)"},
      {"measurement": "AMBEL rating", "setting": "[5]; dose 0.025 kg/ha", "value": "1 (1 - Trace effect)"},
      {"measurement": "AMBEL rating", "setting": "[5]; dose 0.1 kg/ha", "value": "6 (6 - Herbicidal effect)"},
      {"measurement": "AMBEL rating", "setting": "[5]; dose 0.4 kg/ha", "value": "9 (9 - Complete kill)"},
      {"measurement": "ECHCG rating", "setting": "[6]; dose 0.03 kg/ha", "value": "4 (4 - Injury)"},
      {"measurement": "ECHCG rating", "setting": "[6]; dose 0.1 kg/ha", "value": "7 (7 - Good herbicidal effect)"},
      {"measurement": "ECHCG rating", "setting": "[6]; dose 0.4 kg/ha", "value": "7 (7 - Good herbicidal effect)"},
      {"measurement": "IPOHE rating", "setting": "[7]; dose 0.03 kg/ha", "value": "3 (3 - Moderate effect)"},
      {"measurement": "IPOHE rating", "setting": "[7]; dose 0.1 kg/ha", "value": "9 (9 - Complete kill)"},
      {"measurement": "IPOHE rating", "setting": "[7]; dose 0.4 kg/ha", "value": "9 (9 - Complete kill)"},
      {"measurement": "SOLNI rating", "setting": "Solanum nigrum (SOLNI); dose 0.013 kg/ha", "value": "0 (0 - No effect)"},
      {"measurement": "SOLNI rating", "setting": "Solanum nigrum (SOLNI); dose 0.025 kg/ha", "value": "1 (1 - Trace effect)"},
      {"measurement": "SOLNI rating", "setting": "Solanum nigrum (SOLNI); dose 0.1 kg/ha", "value": "4 (4 - Injury)"},
      {"measurement": "SOLNI rating", "setting": "Solanum nigrum (SOLNI); dose 0.4 kg/ha", "value": "9 (9 - Complete kill)"},
      {"measurement": "IPOHE rating", "setting": "[8]; dose 0.025 kg/ha", "value": "1 (1 - Trace effect)"},
      {"measurement": "IPOHE rating", "setting": "[8]; dose 0.1 kg/ha", "value": "2 (2 - Slight effect)"},
      {"measurement": "IPOHE rating", "setting": "[8]; dose 0.4 kg/ha", "value": "5 (5 - Definite injury)"},
      {"measurement": "ZEAMX rating", "setting": "Zea mays (ZEAMX) [9]; dose 0.03 kg/ha", "value": "2 (2 - Slight effect)"},
      {"measurement": "ZEAMX rating", "setting": "Zea mays (ZEAMX) [9]; dose 0.1 kg/ha", "value": "2 (2 - Slight effect)"},
      {"measurement": "ZEAMX rating", "setting": "Zea mays (ZEAMX) [9]; dose 0.4 kg/ha", "value": "3 (3 - Moderate effect)"},
      {"measurement": "DIGSA rating", "setting": "[10]; dose 0.013 kg/ha", "value": "0 (0 - No effect)"},
      {"measurement": "DIGSA rating", "setting": "[10]; dose 0.025 kg/ha", "value": "1 (1 - Trace effect)"},
      {"measurement": "DIGSA rating", "setting": "[10]; dose 0.1 kg/ha", "value": "6 (6 - Herbicidal effect)"},
      {"measurement": "DIGSA rating", "setting": "[10]; dose 0.4 kg/ha", "value": "8 (8 - Approaching complete kill)"},
      {"measurement": "HORVW rating", "setting": "Hordeum vulgare (HORVW) [11]; dose 0.03 kg/ha", "value": "2 (2 - Slight effect)"},
      {"measurement": "HORVW rating", "setting": "Hordeum vulgare (HORVW) [11]; dose 0.1 kg/ha", "value": "3 (3 - Moderate effect)"},
      {"measurement": "HORVW rating", "setting": "Hordeum vulgare (HORVW) [11]; dose 0.4 kg/ha", "value": "3 (3 - Moderate effect)"},
      {"measurement": "AMBEL rating", "setting": "[12]; dose 0.03 kg/ha", "value": "1 (1 - Trace effect)"},
      {"measurement": "AMBEL rating", "setting": "[12]; dose 0.1 kg/ha", "value": "2 (2 - Slight effect)"},
      {"measurement": "AMBEL rating", "setting": "[12]; dose 0.4 kg/ha", "value": "5 (5 - Definite injury)"},
      {"measurement": "HORVW rating", "setting": "Hordeum vulgare (HORVW) [13]; dose 0.013 kg/ha", "value": "0 (0 - No effect)"},
      {"measurement": "HORVW rating", "setting": "Hordeum vulgare (HORVW) [13]; dose 0.025 kg/ha", "value": "0 (0 - No effect)"},
      {"measurement": "HORVW rating", "setting": "Hordeum vulgare (HORVW) [13]; dose 0.1 kg/ha", "value": "2 (2 - Slight effect)"}
    ]}
  ]
}
